The source of these data is ChEMBL document CHEMBL2412992, “Fluorescent ligands for adenosine receptors” (Bioorg Med Chem Lett, 2013).

Active and inactive are the calls of the source. No cut-off for these calls is given here.

The target of test [1] is T1, Adenosine receptor A1 (Homo sapiens, UniProt P30542).
T1 sequence (P30542 whole entry): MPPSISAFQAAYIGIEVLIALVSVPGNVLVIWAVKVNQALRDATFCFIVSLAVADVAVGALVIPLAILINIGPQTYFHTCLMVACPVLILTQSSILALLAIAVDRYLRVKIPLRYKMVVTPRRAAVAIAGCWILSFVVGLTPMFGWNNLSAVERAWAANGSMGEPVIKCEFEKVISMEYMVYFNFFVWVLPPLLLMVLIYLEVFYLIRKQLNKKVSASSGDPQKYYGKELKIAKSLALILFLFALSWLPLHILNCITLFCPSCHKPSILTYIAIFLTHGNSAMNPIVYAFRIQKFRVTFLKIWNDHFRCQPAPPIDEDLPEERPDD
The experiment in a line: Antagonist activity at human adenosine A1 receptor expressed in CHO cells coexpressing cAMP response element assessed as inhibition of agonist-induced response by SPAP reporter gene assay in presence of forskolin. In kind it is functional, cell-based.

Test [2] concerns the target T2, Adenosine receptor A2a (Homo sapiens, UniProt P29274). As to the kind of experiment: Binding affinity to human adenosine A2A receptor expressed in HEK293 cells by fluorescence polarization assay. Format: cell-based.
Test [3] concerns the target T3, Adenosine receptor A1 (Bos taurus, UniProt P28190).
T3 sequence (P28190 whole entry): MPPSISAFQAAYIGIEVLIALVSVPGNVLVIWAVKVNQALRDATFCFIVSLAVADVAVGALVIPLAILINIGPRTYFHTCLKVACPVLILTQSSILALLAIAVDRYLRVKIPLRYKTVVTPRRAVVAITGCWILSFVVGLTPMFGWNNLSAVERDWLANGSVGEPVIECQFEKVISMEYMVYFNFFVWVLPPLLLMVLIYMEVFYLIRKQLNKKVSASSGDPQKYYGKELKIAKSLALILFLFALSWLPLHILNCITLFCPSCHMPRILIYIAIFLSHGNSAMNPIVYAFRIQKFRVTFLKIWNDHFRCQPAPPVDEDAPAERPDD
The experiment in a line: Displacement of [3H]ADAC from adenosine A1 receptor in bovine cerebral cortical membranes after 120 mins. Format: cell membranes.

Test [4] addresses T4, Adenosine receptor A1 (Rattus norvegicus, UniProt P25099).
T4 sequence (P25099 whole entry): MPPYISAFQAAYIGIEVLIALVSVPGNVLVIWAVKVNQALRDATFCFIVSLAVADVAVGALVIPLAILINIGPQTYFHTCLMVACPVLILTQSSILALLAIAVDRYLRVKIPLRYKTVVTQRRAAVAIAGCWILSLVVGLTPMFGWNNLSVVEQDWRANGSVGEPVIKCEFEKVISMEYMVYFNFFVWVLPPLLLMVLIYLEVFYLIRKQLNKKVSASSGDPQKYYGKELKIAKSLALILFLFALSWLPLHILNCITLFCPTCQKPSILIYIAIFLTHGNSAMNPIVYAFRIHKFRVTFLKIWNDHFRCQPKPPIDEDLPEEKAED
As to the kind of experiment: Displacement of [3H]ADAC from adenosine A1 receptor in rat cerebral cortical membranes after 120 mins. Format: cell membranes, Membrane.

Test [5] concerns the target T2, Adenosine receptor A2a. As to the kind of experiment: Displacement of [3H]CGS21680 from human adenosine A2A receptor expressed in HEK293 cells after 60 mins by […] analysis. In kind it is cell-based.
The target of test [6] is T5, Adenosine receptor A1 (Homo sapiens) (UniProt P30542).
T5 sequence (whole entry): T1 sequence (P30542 whole entry)
As to the kind of experiment: Displacement of [3H]R-PIA from human adenosine A1 receptor expressed in CHO cells at 10 uM after 60 mins by […] analysis relative to control. In kind it is cell-based.

Test [7] has as its target T6, Adenosine receptor A3 (Homo sapiens, UniProt P0DMS8).
T6 sequence (P0DMS8 whole entry): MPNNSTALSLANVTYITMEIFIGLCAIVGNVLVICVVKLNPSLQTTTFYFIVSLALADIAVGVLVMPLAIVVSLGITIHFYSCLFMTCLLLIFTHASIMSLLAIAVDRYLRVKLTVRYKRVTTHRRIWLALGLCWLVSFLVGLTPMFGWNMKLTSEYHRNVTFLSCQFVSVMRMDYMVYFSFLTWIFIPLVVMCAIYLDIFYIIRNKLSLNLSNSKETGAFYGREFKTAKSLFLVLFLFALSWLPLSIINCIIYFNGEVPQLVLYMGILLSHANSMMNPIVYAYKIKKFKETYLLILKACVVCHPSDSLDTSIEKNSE
Format: cell-based, CHO.

The target of test [8] is T1, Adenosine receptor A1. The experiment in a line: Displacement of [3H]R-PIA from human adenosine A1 receptor expressed in CHO cells after 60 mins by […] analysis. In kind it is cell-based.
Test [9] concerns the target T6, Adenosine receptor A3. Format: cell-based, CHO. This is another data set of the same source.
Test [10] addresses T1, Adenosine receptor A1. The experiment in a line: Displacement of [3H]DPCPX from adenosine A1 receptor in human cortical membranes. Format: cell membranes.
Test [11] has as its target T2, Adenosine receptor A2a. The experiment in a line: Displacement of [3H]CGS21680 from adenosine A2A receptor in human striatal membranes. Format: cell membranes, Striatum, Membrane.
In test [12] the target is T6, Adenosine receptor A3.
Description: Displacement of [125I]I-AB-MECA from human adenosine A3 receptor expressed in CHO cells after 90 mins by gamma counting analysis
Test [13] has as its target T5, Adenosine receptor A1 (Homo sapiens). As to the kind of experiment: Displacement of [3H]DPCPX from human adenosine A1 receptor expressed in CHO cells up to 0.1 mM after 2 hrs by scintillation counting analysis. In kind it is cell-based.

T2 sequence (P29274 whole entry): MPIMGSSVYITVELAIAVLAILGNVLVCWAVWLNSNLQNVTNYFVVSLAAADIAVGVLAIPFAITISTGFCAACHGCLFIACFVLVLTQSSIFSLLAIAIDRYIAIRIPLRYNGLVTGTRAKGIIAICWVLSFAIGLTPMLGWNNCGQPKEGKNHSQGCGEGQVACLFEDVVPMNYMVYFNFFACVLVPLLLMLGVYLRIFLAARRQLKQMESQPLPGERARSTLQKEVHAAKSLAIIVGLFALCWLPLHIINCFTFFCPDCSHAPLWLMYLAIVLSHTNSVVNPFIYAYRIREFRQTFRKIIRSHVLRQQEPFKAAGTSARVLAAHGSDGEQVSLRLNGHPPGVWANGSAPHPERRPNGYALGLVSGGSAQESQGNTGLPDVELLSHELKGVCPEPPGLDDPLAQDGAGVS

As to `CCNC(=O)[C@H]1O[C@@H](n2cnc3c(NCCNC(=O)COc4ccc(/C=C/C5=[N+]6C(=Cc7ccc(-c8cccs8)n7[B-]6(F)F)C=C5)cc4)ncnc32)[C@H](O)[C@@H]1O`, the Kd on Adenosine receptor A1 [1] is 14.5 nM.

`N=c1ccc2c(-c3ccc(C(=O)NCCCCCCn4cc(NCCNC(=O)COc5ccc(CCCn6ncc7c6nc(N)n6nc(-c8ccco8)nc76)cc5)nn4)cc3C(=O)O)c3ccc(N)c(S(=O)(=O)O)c3oc-2c1S(=O)(=O)O` showed a Kd on Adenosine receptor A2a [2] of 16.5 nM.

Turning to `CCNC(=O)[C@H]1O[C@@H](n2cnc3c(NCCOCCOCCNC(=O)COc4ccc(/C=C/C5=[N+]6C(=Cc7ccc(-c8cccs8)n7[B-]6(F)F)C=C5)cc4)ncnc32)[C@H](O)[C@@H]1O`, the Kd on Adenosine receptor A1 [1] is 17.8 nM.

Regarding `CCCN1C(=O)C2NC(c3ccc(OCC(=O)NCCNC(=O)NCC(=O)NCC(=O)NCC(=S)c4ccc(C5c6ccc(O)cc6OC6=CC(=O)C=CC65)c(C(=O)O)c4)cc3)=NC2N(CCC)C1=O` (centres undefined), the Ki on Adenosine receptor A1 [3] was 17 nM; at Adenosine receptor A1 [4], 97.7 nM.

In the case of `O=C1C=CC2C(=C1)Oc1cc(O)ccc1C2c1ccc(NC(=S)NCCNC(=O)Cc2ccc(NC(=O)Cc3ccc(Nc4ncnc5c4ncn5[C@@H]4O[C@H](CO)[C@@H](O)[C@H]4O)cc3)cc2)cc1C(=O)O` (some centres undefined), the Ki at Adenosine receptor A1 [3] is 2.88 nM; on Adenosine receptor A1 [4], 7.24 nM.

Consider `Cn1cc2c(nc(NCCCNC(=S)Nc3ccc(C4c5ccc(O)cc5OC5=CC(=O)C=CC54)c(C(=O)O)c3)n3nc(-c4ccco4)nc23)n1` (centres undefined), for which the Ki was 2510 nM on Adenosine receptor A2a [5] and 2400 nM at Adenosine receptor A3 [7]. This compound also showed an inhibition in test [6] of 5%.

On to `Cn1cc2c(nc(NNC(=S)Nc3ccc(C4c5ccc(O)cc5OC5=CC(=O)C=CC54)c(C(=O)O)c3)n3nc(-c4ccco4)nc23)n1` (centres undefined), for which the Ki on Adenosine receptor A1 [8] is 9550 nM; on Adenosine receptor A2a [5] it was 933 nM; on Adenosine receptor A3 [7], 794 nM.

Turning to `CCNC(=O)[C@H]1O[C@@H](n2cnc3c(NCCCCNC(=O)COc4ccc(/C=C/C5=[N+]6C(=Cc7ccc(-c8cccs8)n7[B-]6(F)F)C=C5)cc4)ncnc32)[C@H](O)[C@@H]1O`, the Kd on Adenosine receptor A1 [1] was 16.2 nM.

Regarding `CCNC(=O)[C@H]1O[C@@H](n2cnc3c(NCCNc4ccc([N+](=O)[O-])c5nonc45)ncnc32)[C@H](O)[C@@H]1O`, the Ki was 56.2 nM on Adenosine receptor A3 [9], more than 10000 nM on Adenosine receptor A1 [10] and 6760 nM at Adenosine receptor A2a [11].

As for `CCNC(=O)[C@H]1O[C@@H](n2cnc3c(NCCCCCCNc4ccc([N+](=O)[O-])c5nonc45)ncnc32)[C@H](O)[C@@H]1O`, the Ki at Adenosine receptor A3 [9] was 24 nM; at Adenosine receptor A1 [10] it was more than 10000 nM; on Adenosine receptor A2a [11], 6170 nM.

`Nc1nc(NCCc2ccc(O)cc2)nc2nc(-c3ccco3)nn12` [ZM-241385] showed a Ki at Adenosine receptor A3 [12] of 743 nM.

Turning to `Cn1cc2c(nc(NCCCCNC(=S)Nc3ccc(C4c5ccc(O)cc5OC5=CC(=O)C=CC54)c(C(=O)O)c3)n3nc(-c4ccco4)nc23)n1` (centres undefined), the Ki on Adenosine receptor A2a [5] was 468 nM; at Adenosine receptor A3 [7], 724 nM. Further, the inhibition in [6] is 7%.

Regarding `CCNC(=O)[C@H]1O[C@@H](n2cnc3c(NCCCCNC(=O)CCCCCN4/C(=C/C=C/C=C/C5=[N+](CC)c6cc(S(=O)(=O)O)ccc6C5(C)C)C(C)(C)c5cc(S(=O)(=O)[O-])ccc54)ncnc32)[C@H](O)[C@@H]1O`, the result in test [13] was inactive.

For the compound `CCNC(=O)[C@H]1O[C@@H](n2cnc3c(NCCCCCCCCCCCNC(=O)COc4ccc(/C=C/C5=[N+]6C(=Cc7ccc(-c8cccs8)n7[B-]6(F)F)C=C5)cc4)ncnc32)[C@H](O)[C@@H]1O`, the Kd at Adenosine receptor A1 [1] was 12.9 nM.

With `CCNC(=O)[C@H]1O[C@@H](n2cnc3c(NCCCCCCCCNc4ccc([N+](=O)[O-])c5nonc45)ncnc32)[C@H](O)[C@@H]1O`, the Ki on Adenosine receptor A3 [9] was 7.41 nM; on Adenosine receptor A1 [10], 3550 nM; at Adenosine receptor A2a [11], 5130 nM.
